These results are taken from US7070928B2, “Evolving new molecular function” (President and Fellows of Harvard College, priority 2001, dated 2006).

In assay [1] the target is Taq DNA polymerase (Thermus aquaticus, UniProt P19821). Briefly: acceptance of modified nucleotide triphosphates in PCR. Type of assay: biochemical. The following applies: 30 PCR cycles, pUC19 template DNA, three natural deoxynucleotide triphosphates, gel electrophoresis (FIG. 51). The source says:
The ability of thermostable DNA polymerases suitable for PCR amplification to accept these modified nucleotide triphosphates containing metal-binding functionality. Non-natural nucleotide triphosphates were purified by ion exchange HPLC and added to PCR reactions containing Taq DNA polymerase, three natural deoxynucleotide triphosphates, pUC19 template DNA, and two DNA primers. Primers were chosen to generate PCR products ranging from 50 to 200 base pairs in length. Control PCR reactions contained the four natural deoxynucleotide triphosphates and no non-natural nucleotides. PCR reactions were analyzed by agarose or denaturing acrylamide gel electrophoresis. […] Previous findings on the acceptance of 7 by Taq DNA polymerase are in conflict, with-both non-acceptance (K. Sakthivel et al. Angew. Chem. Int. Ed. Engl. 1998, 37, 2872–2875) and acceptance (S. E. Lee et al. Nucleic Acids Res. 2001, 29, 1565–73) reported.

Assay [2] addresses αvβ3 integrin receptor (Homo sapiens, UniProt P05106+P06756). The following applies: benchmark αvβ3 integrin antagonists; cited from earlier work.

Sequence of Taq DNA polymerase (P19821 whole entry): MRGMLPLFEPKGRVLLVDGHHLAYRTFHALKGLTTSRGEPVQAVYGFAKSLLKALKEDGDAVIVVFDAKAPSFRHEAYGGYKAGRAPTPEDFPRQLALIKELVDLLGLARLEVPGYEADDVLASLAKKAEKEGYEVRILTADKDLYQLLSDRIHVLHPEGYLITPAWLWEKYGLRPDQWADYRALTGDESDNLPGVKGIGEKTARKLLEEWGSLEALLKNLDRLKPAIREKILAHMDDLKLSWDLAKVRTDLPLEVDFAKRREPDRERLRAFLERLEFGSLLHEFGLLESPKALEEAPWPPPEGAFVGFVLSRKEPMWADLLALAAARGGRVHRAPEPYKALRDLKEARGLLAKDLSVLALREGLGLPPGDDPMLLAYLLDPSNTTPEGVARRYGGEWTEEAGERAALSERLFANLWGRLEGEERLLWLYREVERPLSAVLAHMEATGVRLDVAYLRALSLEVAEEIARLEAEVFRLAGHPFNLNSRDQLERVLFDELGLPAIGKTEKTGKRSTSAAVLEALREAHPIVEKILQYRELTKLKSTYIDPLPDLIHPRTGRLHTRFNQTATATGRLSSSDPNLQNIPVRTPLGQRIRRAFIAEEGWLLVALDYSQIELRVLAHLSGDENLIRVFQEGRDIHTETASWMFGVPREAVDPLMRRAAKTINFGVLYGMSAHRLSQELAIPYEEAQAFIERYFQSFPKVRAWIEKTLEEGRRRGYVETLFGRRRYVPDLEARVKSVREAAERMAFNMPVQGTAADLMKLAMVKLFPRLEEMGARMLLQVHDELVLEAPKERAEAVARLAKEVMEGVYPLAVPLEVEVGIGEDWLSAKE
Sequence of αvβ3 integrin receptor (P06756 31-889 limits assumed): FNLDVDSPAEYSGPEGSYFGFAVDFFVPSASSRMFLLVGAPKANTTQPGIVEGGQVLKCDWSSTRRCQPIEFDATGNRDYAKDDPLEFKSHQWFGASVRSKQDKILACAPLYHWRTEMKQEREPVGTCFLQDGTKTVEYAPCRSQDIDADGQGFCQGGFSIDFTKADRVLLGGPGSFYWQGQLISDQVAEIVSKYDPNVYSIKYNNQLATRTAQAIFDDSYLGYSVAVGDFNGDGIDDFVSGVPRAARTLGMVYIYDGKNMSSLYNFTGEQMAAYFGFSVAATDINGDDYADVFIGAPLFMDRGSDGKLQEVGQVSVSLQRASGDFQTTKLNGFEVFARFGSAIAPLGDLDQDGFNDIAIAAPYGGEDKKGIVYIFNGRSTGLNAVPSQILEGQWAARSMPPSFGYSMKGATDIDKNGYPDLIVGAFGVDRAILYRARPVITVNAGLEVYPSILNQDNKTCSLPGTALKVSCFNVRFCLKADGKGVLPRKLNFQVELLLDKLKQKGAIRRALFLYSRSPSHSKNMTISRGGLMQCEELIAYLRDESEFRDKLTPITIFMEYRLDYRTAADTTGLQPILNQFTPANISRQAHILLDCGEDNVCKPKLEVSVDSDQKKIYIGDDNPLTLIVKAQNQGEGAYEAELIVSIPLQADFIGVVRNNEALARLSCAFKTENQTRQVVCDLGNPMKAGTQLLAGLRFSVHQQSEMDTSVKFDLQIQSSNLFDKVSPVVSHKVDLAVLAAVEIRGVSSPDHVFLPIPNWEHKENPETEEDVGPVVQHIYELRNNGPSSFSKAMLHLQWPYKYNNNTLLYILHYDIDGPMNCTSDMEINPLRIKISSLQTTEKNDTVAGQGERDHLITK
Sequence of αvβ3 integrin receptor (P06756 891-1048 partner limits assumed): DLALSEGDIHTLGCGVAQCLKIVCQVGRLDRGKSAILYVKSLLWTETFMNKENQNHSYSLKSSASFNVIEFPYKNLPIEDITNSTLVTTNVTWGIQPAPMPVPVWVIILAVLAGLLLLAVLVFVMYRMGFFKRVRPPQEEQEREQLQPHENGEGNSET
Sequence of αvβ3 integrin receptor (P05106 27-788): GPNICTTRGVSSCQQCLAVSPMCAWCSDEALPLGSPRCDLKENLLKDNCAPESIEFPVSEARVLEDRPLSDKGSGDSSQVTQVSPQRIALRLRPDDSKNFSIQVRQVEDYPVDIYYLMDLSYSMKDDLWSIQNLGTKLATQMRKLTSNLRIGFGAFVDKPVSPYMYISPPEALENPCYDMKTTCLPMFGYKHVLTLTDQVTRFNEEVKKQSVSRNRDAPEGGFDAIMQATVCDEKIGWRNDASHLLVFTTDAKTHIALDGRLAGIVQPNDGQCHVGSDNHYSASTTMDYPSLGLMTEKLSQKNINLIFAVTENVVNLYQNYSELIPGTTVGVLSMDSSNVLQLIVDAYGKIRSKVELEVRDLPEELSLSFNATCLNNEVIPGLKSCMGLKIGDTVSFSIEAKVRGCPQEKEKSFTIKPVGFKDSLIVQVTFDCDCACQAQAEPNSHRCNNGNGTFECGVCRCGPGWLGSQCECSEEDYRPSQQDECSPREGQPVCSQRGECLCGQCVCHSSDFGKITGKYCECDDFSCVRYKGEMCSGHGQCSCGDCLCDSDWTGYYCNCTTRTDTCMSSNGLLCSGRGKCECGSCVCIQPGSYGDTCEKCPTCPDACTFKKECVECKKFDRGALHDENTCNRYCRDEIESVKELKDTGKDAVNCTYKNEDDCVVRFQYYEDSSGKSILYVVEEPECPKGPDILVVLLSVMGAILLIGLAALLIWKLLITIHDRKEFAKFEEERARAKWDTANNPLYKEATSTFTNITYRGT

Turning to `O=C(NCC=Cc1cn(C2CC(O)C(COP(=O)(O)OP(=O)(O)OP(=O)(O)O)O2)c(=O)[nH]c1=O)C(F)(F)F` (centres unmarked) [triphosphate of 23], the “incorporation by Taq DNA polymerase” value in assay [1] is listed as “not an efficient polymerase substrate”.

In the case of “GRGDSPK [linear peptide, benchmark αvβ3 integrin antagonist]”, the concentration for half-maximal inhibition (IC50) in assay [2] was 210 nM.

As a reminder, the IC50 is the concentration needed to halve the response being measured.
